# From PubChem BioAssay AID602167 (The Scripps Research Institute Molecular Screening Center, 2012)
# Activity calls are given as the source filed them. The rule behind the calls is not given here.
# Biological target: transactivating tegument protein VP16 (Human herpesvirus 1), as a GAL4-VP16 activation-domain luciferase reporter
# Assay: VP16 transactivation inhibitor potency, dose response, counter-screen for SRC3 inhibitor project, cell-based, luminescence, high throughput, SRC3 series (AID 602167)
# Conditions: VP16 transactivation luciferase reporter cells
row,Compound,IC50
1,C=CCOc1ccc(/C=C2\SC(=S)N(CCC(=O)O)C2=O)cc1,> 35.9 µM (inactive)
2,Cc1ccc2nc(C(F)(F)F)c(C#N)c(N)c2c1,inactive
3,COc1cc(C(=O)OCC(=O)Nc2sccc2C(N)=O)cc(OC)c1OC,> 35.9 µM (inactive)
4,Cc1cccc(CN2CCN(C(=O)CCl)CC2)c1,> 12 µM (inactive)
5,C(=Cc1cnc2ccccc2n1)c1ccc2c(c1)OCO2,inactive
6,Cc1ccc(/C=C2\SC(=S)N(CCCC(=O)NC3CCCC3)C2=O)cc1,4.58 µM
7,COc1cc2c(cc1OC)C(C)N(C(=O)c1cccc([N+](=O)[O-])c1)CC2 (centres undefined),8.56 µM
8,CS(=O)(=O)c1ccc(Sc2nc3ccccc3s2)c([N+](=O)[O-])c1,> 35.9 µM (inactive)
9,CCCCN1C=CC(=C2C(=O)c3ccccc3C2=O)C=C1,5.59 µM
10,CC(=O)c1cccc(-c2csc3ncnc(Sc4nnnn4C)c23)c1,6.89 µM
11,CCOc1ccc(-c2cc(C)n3nc(C(N)=O)cc3n2)cc1,inactive
12,O=C(Nc1cccc(C(F)(F)F)c1)Nc1nnc([C@@H]2C[C@H](O)[C@@H](CO)O2)s1,6.98 µM
13,NS(=O)(=O)c1ccc(Sc2nc3ccccc3s2)c([N+](=O)[O-])c1,7.26 µM
14,O=C(CCl)N(c1ccccc1)C1CCS(=O)(=O)C1 (centres undefined),inactive
15,CCCCC(=O)NC(c1ccc(Cl)cc1Cl)c1ccc2cccnc2c1O (centres undefined),4.78 µM
16,O=c1[nH]c2ccccc2n1C1CCN(C(c2ccccc2)c2nnnn2Cc2ccccc2)CC1 (centres undefined),inactive
17,CC(C)(C)n1ncc2c(=O)n(CC(=O)OCc3ccccc3)cnc21,inactive
18,O=C(NCCCn1ccnc1)c1ccc(N2CCCCCC2)c([N+](=O)[O-])c1,inactive
19,Cc1ccc(C(=O)O/N=C(\N)c2ccccn2)c(Cl)c1,inactive
20,Cc1cc(C(=O)CN2C(=O)c3ccccc3S2(=O)=O)c(C)n1C(C)C,inactive
21,CN(C)c1ccc(C(=S)Nc2ccccc2)cc1,> 35.9 µM (inactive)
22,COC(=O)c1c(C)n(-c2ccc(OC)cc2)c2ccc(O)cc12,8.88 µM
23,COc1ccc(OC)c(N/C=C/C(=O)c2ccccc2)c1,inactive
24,CN(C)c1ccc(CNC(=O)CCNS(=O)(=O)c2cc(Br)cnc2N)cc1,8.6 µM
25,CCCNC(=O)c1nnsc1S(=O)(=O)c1ccc(Cl)cc1,inactive
26,COc1cccc(/C=N/Nc2ccc([N+](=O)[O-])cn2)c1O,4.48 µM

row,Compound,IC50
1,Cc1c(/C(O)=C2/C(=O)C(=O)N(Cc3cccnc3)C2c2ccccn2)cnn1-c1ccccc1 (centres undefined),> 35.9 µM (inactive)
2,O=C(Nc1nc2ccccc2s1)C1c2ccccc2Oc2ccccc21,inactive
3,Cc1cccc(NC(=O)c2cc(Cl)ccc2[N+](=O)[O-])c1,inactive
4,COc1cccc(CNc2ncnc3ccc(-c4c(C)noc4C)cc23)c1,> 35.9 µM (inactive)
5,C=CCn1c(O)c(C(C)=NCc2cc(OC)cc(OC)c2)c(=O)[nH]c1=O,inactive
6,O=C(CC1CS(=O)(=O)CC1CC(=O)Nc1ccc2c(c1)OCCO2)Nc1ccc2c(c1)OCCO2 (centres undefined),inactive
7,Cc1sc2ncnc(N3CCC(C(=O)Nc4ccccc4C(C)(C)C)CC3)c2c1C,8.88 µM
8,COc1cc([C@@H]2c3cc4c(cc3[C@@H](O[C@@H]3O[C@@H]5CO[C@@H](C)O[C@H]5[C@H](O)[C@H]3O)[C@H]3COC(=O)[C@H]23)OCO4)cc(OC)c1O,> 35.9 µM (inactive)
9,C/C(=N\NC(=S)Nc1cc(S(=O)(=O)N2CCOCC2)ccc1Cl)c1ccccc1F,inactive
10,Cc1nc(N)nc(N)c1-c1ccc(Cl)c(Cl)c1,> 11.9 µM (inactive)
11,O=c1[nH]c2ccccc2n1C1CCN(C(c2cc3ccccc3o2)c2nnnn2Cc2ccccc2)CC1 (centres undefined),inactive
12,Fc1ccccc1-c1csc(=Nc2cccnc2)n1CCCn1ccnc1,7.45 µM
13,O=C(Nc1ccc(OCC(=O)N2CCOCC2)cc1)c1cncc(Br)c1,inactive
14,COc1cc(/C=C2\CC(C(C)(C)C)C/C(=C\c3cc(OC)c(OC)c(OC)c3)C2=O)cc(OC)c1OC (centres undefined),4.47 µM
15,Clc1ccc(-c2csc3ncnc(NCCN4CCOCC4)c23)cc1,8.01 µM
16,CCC(=O)N1CCN(c2ccnc3cc(Cl)ccc23)CC1,inactive
17,Cc1ccc(C(=O)Nc2cnc3ccccc3c2)cc1,8.49 µM
18,CC(=O)OCCN1c2ccccc2Sc2cnccc21,6.3 µM
19,CC(=O)Nc1ccc(SCC(=O)c2cc(C)n(-c3ccccc3)c2C)cc1,> 35.9 µM (inactive)
20,COc1cc(/C=N/NC(N)=S)cc(Br)c1OCc1ccccc1F,> 12 µM (inactive)
21,CC(C)(C)C(=O)Nc1ccc(N=Nc2ccccc2)cc1,> 35.9 µM (inactive)
22,Cc1cc(/C=C2\Cc3ccccc3C2=O)c(C)n1-c1ccccc1,inactive
23,c1ccc2c(c1)Nc1ccncc1S2,inactive
24,CCc1ccc(-c2nc(CSCC(=O)NCc3ccco3)c(C)o2)cc1,inactive
25,COC(CN(C(=O)CCl)C(C(=O)NC1CCCCC1)c1ccccc1C)OC (centres undefined),7.26 µM
26,Cc1nc2c(-c3ccc(Cl)cc3)cnn2c(N)c1-c1ccc(F)cc1,1.2 µM

row,Compound,IC50
1,CO[C@@]12[C@@H]3N[C@@H]3CN1C1=C(C(=O)C(N)=C(C)C1=O)[C@@H]2COC(N)=O,> 35.8 µM (inactive)
2,CCN(c1cccc(C)c1)c1ncnc2nc[nH]c12,inactive
3,CC(=O)c1cccc(NC(=O)Nc2ccc3c(c2)N(C)C(=O)CS3)c1,inactive
4,Cc1cc(C(=O)COC(=O)C2=COCCO2)c(C)n1-c1ccccc1,> 12 µM (inactive)
5,O=C(OCCC12CC3CC(CC(C3)C1)C2)c1ccc(NCc2cc(O)ccc2O)cc1,5.45 µM
6,CC(=O)c1ccc(Nc2c3c(nc4ccccc24)CCCC3)cc1,inactive
7,Oc1ccc(C=NNc2ccccn2)c(O)c1,inactive
8,COc1ccccc1N(C(=O)CCl)c1cn(C(C)=O)c2ccccc12,8.58 µM
9,O=c1[nH]c2ccccc2n1C1CCN(C(c2ccccc2)c2nnnn2-c2ccc3c(c2)OCCO3)CC1 (centres undefined),inactive
10,O=S(=O)(/C(=C\c1ccc(C(F)(F)F)cc1)c1nc2ccccc2[nH]1)c1ccccc1,3.93 µM
11,COc1ccc(C(C(=O)NC2CCCCC2)N(C(=O)CCl)c2ccc(OC)cc2)cc1 (centres undefined),6.59 µM
12,c1csc(Cc2nn3c(-c4ccncc4)nnc3s2)c1,inactive
13,O=C(NCCc1ccccc1)c1ccc2c(c1)OCCO2,5.83 µM
14,O=C(NC(NC(=S)N1CCOCC1)C(Cl)(Cl)Cl)c1ccc(Cl)cc1 (centres undefined),> 35.9 µM (inactive)
15,O=C(Nc1ccccc1Oc1ccccc1)c1cc([N+](=O)[O-])ccc1Cl,inactive
16,O=C(CNc1cccc([N+](=O)[O-])c1)N/N=C/c1ccc([N+](=O)[O-])o1,inactive
17,Cc1cc(-c2nnc(SCC(=O)Nc3ccccc3C(F)(F)F)o2)c(C)n1-c1ccccc1,> 35.9 µM (inactive)
18,CN(C)/C=C/C(=O)c1ccc2noc(-c3ccccc3)c2c1,inactive
19,O=C(N/N=C\c1ccc([N+](=O)[O-])o1)C1COc2ccccc2O1 (centres undefined),inactive
20,COc1ccc(CCNC(=O)c2nnn(-c3ccc4c(c3)OCCO4)c2N)cc1OC,inactive
21,Cc1cccc(C)c1NS(=O)(=O)c1ccc(-c2cnc(C3CC3)o2)cc1,> 12 µM (inactive)
22,COc1cccc(F)c1C(C[N+](=O)[O-])c1c(N)n(C)c(=O)n(C)c1=O (centres undefined),5.01 µM
23,CCCC(=O)NC(c1ccc(Cl)cc1Cl)c1ccc2cccnc2c1O (centres undefined),4.42 µM
24,O=c1[nH]c2ccccc2n1C1CCN(C(c2cccc3ccccc23)c2nnnn2-c2ccc3c(c2)OCCO3)CC1 (centres undefined),7.28 µM
25,C[C@@H](C(=O)Nc1ccc2c(c1)OCCO2)n1c(=O)[nH]c2ccccc2c1=O,inactive
26,Cc1ccc(/C=C2/SC(=S)N(CCCC(=O)Nc3ccc(O)cc3)C2=O)cc1,inactive

row,Compound,IC50
1,CCOC(=O)c1cc2sccc2n1CC(=O)N1CCc2ccccc21,> 35.9 µM (inactive)
2,CCOc1cc(/C=C2\CCC/C(=C\c3cc(Cl)c(O)c(OCC)c3)C2=O)cc(Cl)c1O,4.82 µM
3,COc1cccc(-c2nnc3sc(C4CCCCC4)nn23)c1,9.52 µM
4,CC(C)(C)c1ccc(Oc2ccc(N)cn2)cc1,inactive
5,CCOC(=O)C(C(C)=O)c1c(Br)c(O)c(O)c2c(C(=O)c3ccc(C)cc3)coc12 (centres undefined),4.28 µM
6,O=C(CCl)N1N=C(c2ccco2)CC1c1ccco1 (centres undefined),> 12 µM (inactive)
7,Nc1ccc(Oc2ccccc2-c2ccccc2)cc1,inactive
8,CC1CCN(C2=NC(=O)/C(=C/c3ccccc3F)S2)CC1,inactive
9,COc1cc(C(=O)N/N=C(\c2ccccc2)c2ccccn2)cc(OC)c1OC,7.23 µM
10,COc1ccc(C)cc1NS(=O)(=O)c1ccc(NC(=O)CN(c2cc([N+](=O)[O-])ccc2C)S(C)(=O)=O)cc1,inactive
11,Cc1ccc(-n2c(Cl)c(Cl)nc(Cl)c2=O)cc1,4.07 µM
12,OCCN1CCN(C(=S)c2ccc(-c3ccccc3)cc2)CC1,> 35.9 µM (inactive)
13,Brc1ccc2ncc3ccccc3c2c1,inactive
14,CS(=O)c1nc(-c2ccc(Br)cc2)cc(-c2ccccc2)c1C#N (centres undefined),inactive
15,Cc1nnc(SC(=O)N2c3ccccc3Sc3ccccc32)s1,7.54 µM
16,O=C(N/N=C/c1cc(Br)c(Br)s1)c1ccncc1,inactive
17,CCn1nc(/C=C/c2ccccc2)nc2c(=O)n(C)c(=O)nc1-2,5.14 µM
18,Cc1ccc(N=c2c([N+](=O)[O-])nn(-c3ccc4c(c3)OCCO4)n2O)cc1F,inactive
19,COc1cc2c(c(OC)c1OC)-c1ccc(SC)c(=O)cc1C(NC=O)CC2 (centres undefined),inactive
20,CC1(C)N=C(N)N=C(N)N1CCCCc1ccccc1,5.25 µM
21,CCOC(=O)C(=CNc1ccc(NC2=NCC(C)S2)cc1)C(=O)OCC (centres undefined),inactive
22,COc1ccc(C(C(=O)NC2CCCCC2)N(C(=O)CCl)c2ccc(Cl)cc2)cc1 (centres undefined),5.27 µM
23,C#CC(=O)N(c1cc(OC)ccc1OC)C(C(=O)NC1CCCC1)c1cccs1 (centres undefined),> 35.9 µM (inactive)
24,CCOc1ccc(CC(=O)Nc2ccc(NC(=O)c3ccco3)cc2)cc1OCC,7.73 µM
25,CCc1nc(N)nc(N)c1-c1ccc(Cl)c([N+](=O)[O-])c1,> 35.8 µM (inactive)
26,CN(Cc1cnc2nc(N)nc(N)c2n1)c1ccc(C(=O)NC(CCC(=O)O)C(=O)O)c2ccccc12 (centres undefined),> 35.9 µM (inactive)
